What was measured:
Format in all cases: cell-based
[1] = target: T1, GR ligand binding domain / SRC-1 (Homo sapiens, UniProt P04150); assay: SRC-1 association assay by mammalian two-hybrid analysis; conditions: for SRC-1 recruitment at the highest concentration tested: 100 nM
T1 construct: expressed in transfected cells
T1 sequence (P04150 524-758 limits assumed): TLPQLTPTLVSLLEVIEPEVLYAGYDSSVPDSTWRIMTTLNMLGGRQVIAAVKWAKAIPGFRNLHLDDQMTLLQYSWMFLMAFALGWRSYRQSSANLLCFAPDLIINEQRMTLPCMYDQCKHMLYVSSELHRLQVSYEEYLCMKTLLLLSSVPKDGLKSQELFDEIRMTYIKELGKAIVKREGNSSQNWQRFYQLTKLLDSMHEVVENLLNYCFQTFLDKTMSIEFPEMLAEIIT
Source text: SRC-1 is an important co-activator of GR action that associates with the GR in a ligand dependant manner. The ability of SRC-1 to associate with the GR in this manner can be used as a measure of potency of ligand mediated transactivation. To perform this assay plasmids that generated VP16-GR ligand binding domain (LBD) and GAL4-SRC-1 fusion proteins and a GAL4 binding luciferase reporter gene construct were transfected into in a cell line lacking GR and deficient in endogenous SRC-1. The GAL4-SRC-1 fusion protein could bind to specific sites upstream of the luciferase reporter gene construct. If the SRC-1 fusion protein associated with the ligand bound VP16-GRLBD fusion protein then the VP-16 activation domain augmented the luciferase gene expression.

[2] = target: T2, GFP tagged GR (Homo sapiens, UniProt P04150); assay: Nuclear translocation using GFP tagged GR and fluorescent microscopy; conditions: COS 7 cells, 100 nM, 3 hours
T2 construct: expressed in transfected cells; host or cells: COS 7
T2 sequence (P04150 1-777): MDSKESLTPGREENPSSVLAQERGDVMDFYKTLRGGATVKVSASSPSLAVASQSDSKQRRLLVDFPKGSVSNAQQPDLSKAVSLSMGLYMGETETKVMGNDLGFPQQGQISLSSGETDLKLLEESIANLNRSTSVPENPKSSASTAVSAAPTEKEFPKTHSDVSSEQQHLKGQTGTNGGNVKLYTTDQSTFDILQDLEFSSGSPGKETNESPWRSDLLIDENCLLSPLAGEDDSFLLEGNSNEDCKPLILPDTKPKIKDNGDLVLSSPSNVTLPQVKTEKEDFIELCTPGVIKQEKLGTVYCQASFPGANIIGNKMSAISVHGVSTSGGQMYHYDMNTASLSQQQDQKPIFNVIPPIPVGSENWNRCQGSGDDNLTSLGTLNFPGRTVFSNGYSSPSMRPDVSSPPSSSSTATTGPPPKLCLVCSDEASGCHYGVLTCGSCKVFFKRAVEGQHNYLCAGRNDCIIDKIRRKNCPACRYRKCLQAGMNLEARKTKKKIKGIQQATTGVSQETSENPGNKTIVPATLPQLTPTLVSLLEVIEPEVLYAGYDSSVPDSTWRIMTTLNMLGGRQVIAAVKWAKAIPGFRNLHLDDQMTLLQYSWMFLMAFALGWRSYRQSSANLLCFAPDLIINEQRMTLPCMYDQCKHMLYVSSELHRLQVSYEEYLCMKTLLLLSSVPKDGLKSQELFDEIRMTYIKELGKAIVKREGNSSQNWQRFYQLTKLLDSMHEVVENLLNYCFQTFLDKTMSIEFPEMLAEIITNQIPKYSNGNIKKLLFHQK
Source text: The un-liganded GR is present in the cytoplasm of cells in association with heat shock proteins (HSPs). The binding of an agonist ligand to the GR causes dissociation from the HSPs and translocation to the nucleus. A type I antagonist ligand can bind to the GR but cannot translocate to the nucleus. A type II antagonist ligand can bind to the GR, translocate to the nucleus and bind to DNA but cannot activate gene transcription. Therefore, the ability of a putative ligand to translocate the GR helps to determine its status as an agonist or antagonist. COS 7 cells were transfected with 5 μg of a green fluorescent protein (GFP) tagged GR expression vector. After transfection, these cells were split into 6 well plates with sterile microscope cover slips placed at the bottom of each well. The cells were allowed to recover for 18 hours and then the medium was removed, the cells were washed three times with sterile phosphate buffered saline (PBS) and new medium was added containing charcoal stripped FCS in place of normal FCS. The cells were incubated for 18 hours and then the steroids of FIGS. 1 and 2A were added to make a final concentration of 100 nM. The cells were incubated for a further 3 hours and then the medium was aspirated and the cells were fixed to the glass coverslips by adding ice cold methanol and incubating at −20° C. for 30 mins. The coverslips with the transfected cells fixed to them were mounted on slides and the cellular localisation of the GFP tagged GR was analysed by fluorescent microscopy using an Axioplan 2 microscope (Zeiss, Oberkochen, Germany) and KS300 v3.0 analysis software (Zeiss).

[3] = target: T3, glucocorticoid receptor (Homo sapiens, UniProt P04150); assay: Type II antagonist activity assay: competition of dexamethasone transactivation; set-up: expressed in transfected cells; host or cells: COS 7 (African green monkey kidney, deficient in endogenous GR); conditions: COS7 cells stimulated with 1 nM dexamethasone
T3 sequence (P04150 1-777): T2 sequence (P04150 1-777)
Description: A type II antagonist should be able to compete agonist activity. As an antagonist has no ability to transactivate, competition can be measured by inhibition of an agonist in a transactivation assay.
As with the standard transactivation assay previously described, the GR was artificially expressed in a cell line lacking endogenous GR and a GRE “driving” a luciferase reporter gene was used to measure ligand dependent activation. COS7 cells were transfected with 1 μg pcDNA3-GR and 3 μg AH3-Luc per 10 cm tissue culture dish. The cells were plated out in to 24 well plates after transfection and the steroids were added immediately. […] Certain steroids from FIG. 2A were added at the same concentration to all sample wells. After 18 hour incubation the cells were lysed and a luciferase assay was performed.

| Compound | nuclear translocation of the GFP tagged glucocorticoid receptor [2] | SRC-1 recruitment at the highest concentration tested [1] | competition of dexamethasone transactivation [3] | other results |
| --- | --- | --- | --- | --- |
| CC1CC2C3CCC4=CC(=O)C=CC4(C)C3(F)C(O)CC2(C)C12OC(C)(C)OCC2=O (stereo not shown) [Compound A] | caused nuclear localisation |  |  | SRC-1 recruitment, sub-maximal response ([1]; 1, 10 and 100 nM, relative to dexamethasone): ~50% |
| CC1CC2C3CCC4=CC(=O)C=CC4(C)C3(F)C(O)CC2(C)C1(O)C(=O)COC(=O)c1ccc(F)cc1 (stereo not shown) [Compound D] | caused nuclear localisation |  |  | SRC-1 recruitment compared with dexamethasone ([1]; 1, 10 and 100 nM): recruited SRC-1 to the same extent as dexamethasone |
| CCCNC(=O)C1(O)C(C)CC2C3CCC4=CC(=O)C=CC4(C)C3(F)C(O)CC21C (stereo not shown) [Compound G] |  | no SRC-1 recruitment |  | transactivation as measured by SRC-1 recruitment ([1]; 1 and 10 nmolar): no transactivation as measured by SRC-1 recruitment |
| Cc1ccc(NC(=O)C2(O)C(C)CC3C4CCC5=CC(=O)C=CC5(C)C4(F)C(O)CC32C)cc1 (stereo not shown) [Compound O] | failed to cause translocation |  | failed to repress dexamethasone transactivation |  |
| CCCCCCNC(=O)OCC(=O)C1(O)C(C)CC2C3CCC4=CC(=O)C=CC4(C)C3(F)C(O)CC21C (stereo not shown) [Compound T] |  | significant response |  |  |
| CC1CC2C3CCC4=CC(=O)C=CC4(C)C3(F)C(O)CC2(C)C1(O)C(=O)NCCCO (stereo not shown) [L] |  |  | failed to repress dexamethasone transactivation |  |
| CC1CC2C3CCC4=CC(=O)C=CC4(C)C3(F)C(O)CC2(C)C1(O)C(=O)NCCC(=O)O (stereo not shown) [Q] |  |  | failed to repress dexamethasone transactivation |  |
| CCCOC(=O)C1(O)C(C)CC2C3CCC4=CC(=O)C=CC4(C)C3(F)C(O)CC21C (stereo not shown) [R] |  | significant response | failed to repress dexamethasone transactivation |  |
